Remaining activity data for two compounds are collected here from paper PMC8617627, “Novel DYRK1A Inhibitor Rescues Learning and Memory Deficits in a Mouse Model of Down Syndrome” (Pharmaceuticals, 2021).

Each structure is given as a SMILES string. Where two headings read alike, the source gives them in different places.

As usually defined, the remaining activity is the signal under treatment as a percentage of the control signal.

Targets include VEG-FR (Homo sapiens, UniProt P17948); PAK5 (Homo sapiens, UniProt Q9P286); PIM3 (Homo sapiens, UniProt Q86V86).
Experiment in all cases: Kinase profile (33P ATP filter binding)
Assay type in all cases: biochemical
What all share (conditions): read-out: Remaining protein kinase activity

In a further assay the target is T1, IKKe (Homo sapiens, UniProt Q14164).
T1 sequence (Q14164 1-716): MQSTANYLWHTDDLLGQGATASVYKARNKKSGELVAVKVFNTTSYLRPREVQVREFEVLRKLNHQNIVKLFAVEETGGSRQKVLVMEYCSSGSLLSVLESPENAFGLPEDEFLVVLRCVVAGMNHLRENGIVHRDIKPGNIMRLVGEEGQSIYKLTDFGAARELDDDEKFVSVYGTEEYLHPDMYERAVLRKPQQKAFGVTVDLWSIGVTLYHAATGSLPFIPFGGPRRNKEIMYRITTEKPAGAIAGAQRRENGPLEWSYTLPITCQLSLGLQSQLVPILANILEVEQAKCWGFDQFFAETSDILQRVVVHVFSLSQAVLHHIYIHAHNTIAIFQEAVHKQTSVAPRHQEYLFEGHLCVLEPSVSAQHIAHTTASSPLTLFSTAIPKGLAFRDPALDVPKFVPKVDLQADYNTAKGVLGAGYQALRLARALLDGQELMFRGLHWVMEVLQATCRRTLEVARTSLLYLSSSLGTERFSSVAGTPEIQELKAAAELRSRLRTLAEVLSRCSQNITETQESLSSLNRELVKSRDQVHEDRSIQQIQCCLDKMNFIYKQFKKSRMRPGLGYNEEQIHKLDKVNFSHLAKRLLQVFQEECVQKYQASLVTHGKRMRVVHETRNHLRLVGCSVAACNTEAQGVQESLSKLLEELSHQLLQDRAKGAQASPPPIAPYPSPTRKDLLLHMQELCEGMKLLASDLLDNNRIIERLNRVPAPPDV

The next assay has as its target T2, PINK (Tribolium castaneum, UniProt D6WMX4).
T2 sequence (D6WMX4 1-570): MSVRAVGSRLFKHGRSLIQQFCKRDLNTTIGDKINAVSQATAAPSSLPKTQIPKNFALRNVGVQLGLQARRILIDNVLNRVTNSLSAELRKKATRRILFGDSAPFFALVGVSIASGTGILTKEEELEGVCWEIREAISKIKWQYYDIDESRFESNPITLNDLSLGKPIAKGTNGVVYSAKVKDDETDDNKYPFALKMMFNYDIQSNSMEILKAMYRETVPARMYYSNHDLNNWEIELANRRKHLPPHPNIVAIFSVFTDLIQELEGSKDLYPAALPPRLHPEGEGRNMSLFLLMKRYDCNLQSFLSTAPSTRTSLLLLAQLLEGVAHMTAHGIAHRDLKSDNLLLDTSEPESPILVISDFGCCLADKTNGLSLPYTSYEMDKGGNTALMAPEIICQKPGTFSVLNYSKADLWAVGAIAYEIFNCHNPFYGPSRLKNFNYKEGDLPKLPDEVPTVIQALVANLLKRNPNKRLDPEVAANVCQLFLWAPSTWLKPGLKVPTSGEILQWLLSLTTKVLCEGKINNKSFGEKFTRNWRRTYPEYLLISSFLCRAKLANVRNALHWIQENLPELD

In a further assay the target is T3, PKD1 (Homo sapiens, UniProt Q15139).
T3 sequence (Q15139 1-912): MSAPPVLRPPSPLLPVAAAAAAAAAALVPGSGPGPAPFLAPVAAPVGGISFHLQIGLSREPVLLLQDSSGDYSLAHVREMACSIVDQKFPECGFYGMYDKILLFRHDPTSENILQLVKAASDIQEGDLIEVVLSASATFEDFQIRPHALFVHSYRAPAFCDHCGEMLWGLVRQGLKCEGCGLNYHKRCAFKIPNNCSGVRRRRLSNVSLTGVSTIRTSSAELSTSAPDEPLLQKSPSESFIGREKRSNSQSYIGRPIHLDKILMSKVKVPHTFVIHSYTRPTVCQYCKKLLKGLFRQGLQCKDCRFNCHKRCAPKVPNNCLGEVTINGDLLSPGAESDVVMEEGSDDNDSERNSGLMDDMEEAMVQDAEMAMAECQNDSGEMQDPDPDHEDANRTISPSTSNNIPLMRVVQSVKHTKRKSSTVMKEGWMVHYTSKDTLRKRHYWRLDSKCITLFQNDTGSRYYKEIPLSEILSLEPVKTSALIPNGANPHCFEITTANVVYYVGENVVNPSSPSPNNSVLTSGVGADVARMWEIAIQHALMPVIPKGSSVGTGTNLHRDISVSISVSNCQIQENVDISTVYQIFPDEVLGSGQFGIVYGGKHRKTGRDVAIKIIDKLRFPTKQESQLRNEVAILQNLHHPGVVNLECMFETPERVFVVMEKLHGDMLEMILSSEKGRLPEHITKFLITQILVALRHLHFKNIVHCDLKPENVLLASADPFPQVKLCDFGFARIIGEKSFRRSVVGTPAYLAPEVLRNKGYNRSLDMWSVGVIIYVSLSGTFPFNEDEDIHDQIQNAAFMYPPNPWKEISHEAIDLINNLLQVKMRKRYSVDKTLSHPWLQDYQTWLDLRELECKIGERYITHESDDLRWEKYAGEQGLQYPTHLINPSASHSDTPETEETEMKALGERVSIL

PAK5, sequence (Q9P286 whole entry): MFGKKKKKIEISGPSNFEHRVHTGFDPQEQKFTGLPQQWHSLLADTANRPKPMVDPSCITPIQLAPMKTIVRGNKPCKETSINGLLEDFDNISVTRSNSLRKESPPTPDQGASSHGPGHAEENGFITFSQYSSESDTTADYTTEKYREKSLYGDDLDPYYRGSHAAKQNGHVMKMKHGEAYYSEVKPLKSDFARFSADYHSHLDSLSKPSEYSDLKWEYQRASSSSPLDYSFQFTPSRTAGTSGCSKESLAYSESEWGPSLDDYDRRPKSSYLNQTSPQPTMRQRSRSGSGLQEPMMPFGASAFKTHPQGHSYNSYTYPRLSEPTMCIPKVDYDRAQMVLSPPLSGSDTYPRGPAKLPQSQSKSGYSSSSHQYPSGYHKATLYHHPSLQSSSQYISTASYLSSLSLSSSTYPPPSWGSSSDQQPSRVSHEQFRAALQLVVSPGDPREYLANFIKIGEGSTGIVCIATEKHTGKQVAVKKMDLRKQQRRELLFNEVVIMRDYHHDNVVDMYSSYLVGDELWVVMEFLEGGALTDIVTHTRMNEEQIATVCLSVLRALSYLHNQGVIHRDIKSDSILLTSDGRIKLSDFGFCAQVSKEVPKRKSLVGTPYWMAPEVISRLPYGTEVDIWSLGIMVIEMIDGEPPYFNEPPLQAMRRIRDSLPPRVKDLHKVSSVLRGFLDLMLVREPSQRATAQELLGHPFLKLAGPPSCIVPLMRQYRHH
VEG-FR, sequence (P17948 27-1338): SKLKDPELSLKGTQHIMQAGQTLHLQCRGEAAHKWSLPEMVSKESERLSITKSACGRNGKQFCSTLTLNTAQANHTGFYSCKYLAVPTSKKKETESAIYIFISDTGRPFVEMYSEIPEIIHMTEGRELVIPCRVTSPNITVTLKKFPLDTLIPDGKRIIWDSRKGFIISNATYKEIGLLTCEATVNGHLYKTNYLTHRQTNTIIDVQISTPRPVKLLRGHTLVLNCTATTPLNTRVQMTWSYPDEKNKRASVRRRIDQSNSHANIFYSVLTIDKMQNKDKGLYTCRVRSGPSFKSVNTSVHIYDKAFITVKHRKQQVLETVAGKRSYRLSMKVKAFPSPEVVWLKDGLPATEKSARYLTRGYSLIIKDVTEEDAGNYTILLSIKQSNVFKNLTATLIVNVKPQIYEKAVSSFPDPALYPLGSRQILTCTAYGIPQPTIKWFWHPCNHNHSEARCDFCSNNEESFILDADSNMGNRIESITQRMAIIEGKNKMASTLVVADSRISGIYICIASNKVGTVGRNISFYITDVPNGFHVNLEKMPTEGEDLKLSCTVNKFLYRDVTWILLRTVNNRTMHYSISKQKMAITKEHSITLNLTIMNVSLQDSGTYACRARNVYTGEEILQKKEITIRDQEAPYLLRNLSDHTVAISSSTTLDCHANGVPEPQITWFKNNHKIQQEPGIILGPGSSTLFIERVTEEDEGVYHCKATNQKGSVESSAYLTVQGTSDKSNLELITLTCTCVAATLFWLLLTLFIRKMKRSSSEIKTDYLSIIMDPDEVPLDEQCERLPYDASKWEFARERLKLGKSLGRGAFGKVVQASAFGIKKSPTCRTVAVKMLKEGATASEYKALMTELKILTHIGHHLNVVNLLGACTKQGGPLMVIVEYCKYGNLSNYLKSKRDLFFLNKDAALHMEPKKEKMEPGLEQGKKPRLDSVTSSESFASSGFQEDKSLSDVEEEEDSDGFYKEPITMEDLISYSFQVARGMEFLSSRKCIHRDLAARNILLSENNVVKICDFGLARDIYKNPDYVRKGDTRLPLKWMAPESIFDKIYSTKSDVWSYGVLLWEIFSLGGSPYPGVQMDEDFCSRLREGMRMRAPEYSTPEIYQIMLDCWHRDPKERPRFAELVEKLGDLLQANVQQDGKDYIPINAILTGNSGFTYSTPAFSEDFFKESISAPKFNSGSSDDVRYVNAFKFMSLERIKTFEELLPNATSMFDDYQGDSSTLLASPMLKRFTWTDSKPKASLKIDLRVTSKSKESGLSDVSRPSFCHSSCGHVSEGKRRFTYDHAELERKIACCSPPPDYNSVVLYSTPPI

As to `COc1ccc2sc(-c3cncc(NC(C)=O)c3)nc2c1` [PST-001, N-(5-(5-Methoxybenzo[d]thiazol-2-yl)pyridin-3-yl)acetamide], the remaining activity at 1 µM worked out at 105% on IKKe; 119% on PINK; 103% on PKD1; 111% on VEG-FR; 113% on PAK5; 93% on PIM3. Also, the remaining activity at 100 µM worked out at 122% at IKKe; 118% on PINK; 92% on PKD1; 41% at VEG-FR; 129% on PAK5; 76% on PIM3.
Regarding `COc1ccc2sc(-c3cncc(N)c3)nc2c1` [compound 1, 5-(5-Methoxybenzo[d]thiazol-2-yl)pyridin-3-amine], the remaining activity at 1 µM at IKKe (IKKe, 1 μM) is 110%; at PINK, 121%; on PKD1 (PKD1, 1 μM) it was 94%; on VEG-FR (VEG-FR, 1 μM), 110%; at PAK5 (PAK5, 1 μM), 111%; at PIM3 (PIM3, 1 μM) it was 90%. Also, the remaining activity at 100 µM stood at 55% at IKKe (IKKe, 100 μM); 114% at PINK; 23% on PKD1 (PKD1, 100 μM); 20% on VEG-FR (VEG-FR, 100 μM); 70% on PAK5 (PAK5, 100 μM); 24% at PIM3 (PIM3, 100 μM).
